Source: patent publication US20060025390A1, “Treatment of hormone allergy and related symptoms and disorders” (priority 2004, published 2006)

Assays:
women with acute asthma = assay: Symptom relief in women with acute asthma after intradermal progesterone (0 to 10 scale); assay type: in vivo, human
Experimental: To test this hypothesis, 142 women with acute asthma were asked to evaluate the severity of their symptoms using an eleven point scale. Ten was assigned to the most severe symptoms, while 0 was assigned to an absence of symptoms. Immediately after assessing their symptoms on this scale, patents were administered 0.5 mg of progesterone by intradermal injection.
Approximately 15 to 30 seconds after the injection was administered, each patient was asked if their symptoms were worse, better, or unchanged. Each patient was also asked to rate their present symptoms on the same 0 to 10 scale.
Of the 142 patients tested 129 (91%) positively responded to the treatment. Using the random effects calculations described in Example 2, this correlates to a less than 0.1% chance that the results are random. Thus the results may be considered highly significant.
Hormone samples may be prepared in any way suitable for the intended administration route. For administration through intradermal injection, samples may be prepared as they were in the studies of Examples 2 and 3. Specifically, the progesterone was formulated from commercially available injectable progesterone. Each ml of the final formulation contained […] of progesterone and 10% benzyl alcohol as a preservative in sesame oil. 0.1 ml was administered per patient intradermally. Estrogen samples were similarly prepared.

[1] = tested on: serum IgG anti-17-α-hydroxyprogesterone antibodies; assay: ELISA binding of IgG 17-α-hydroxyprogesterone antibodies to different hormones in solid phase; parameters: species or system human; settings: for IgG binding (optical density): hormone in solid phase, 405 nm; for IgG % reaction: relative to 17-α-hydroxyprogesterone = 100
Experimental: (§1) The ELISA inhibition method was used to determine specificity and cross-reactivity between different hormones and to ensure the degree of human IgG, IgM and IgE estrogen or progesterone binding to estrogen or progesterone in solid phase. […] 100 μl of sera from three different patients with high IgG, IgM or IgE antibodies against 17-α-hydroxyprogesterone was added to all wells. After shaking and incubation for 1 hr at room temperature, addition of enzyme labeled anti-human IgG, IgM or IgE, repeat of incubation, washing, and addition of substrate, color development was measured at 405 nm. Results were calculated as percentage of anti-17-α-hydroxyprogesterone binding to 17-α-hydroxyprogesterone and other hormones. Also, anti-estrogen binding to estrogen and other hormones in solid phase by progesterone in liquid phase was performed and calculated in a similar manner.
(§2) Human sera containing 17-α-hydroxyprogesterone IgG-, IgM- and IgE-binding antibodies were reacted against progesterone, estrogen, hydrocortisone and cholesterol. In comparison to 100% binding of anti-17-α-hydroxyprogesterone-binding to 17-α-hydroxyprogesterone, the IgG anti-17-α-hydroxyprogesterone-binding to progesterone, estrogen, hydrocortisone and cholesterol was 69-77%, 25-30%, 39-53%, and less than 10% respectively (Table 4). The % binding of serum IgM and IgE anti-17-α-hydroxyprogesterone to 17-1-hydroxyprogesterone, progesterone, estrogen, hydrocortisone and cholesterol was similar to the binding of IgG. This binding of anti-17-α-hydroxyprogesterone to progesterone was the highest, followed by hydrocortisone, then estrogen, to almost no binding with cholesterol. Similar to this, human sera with IgG, IgM and IgE binding antibodies against estrogen were reacted with progesterone, 17-α-hydroxyprogesterone, hydrocortisone and cholesterol, in the presence of estrogen.

[2] = tested on: serum IgM anti-17-α-hydroxyprogesterone antibodies; assay: ELISA binding of IgM 17-α-hydroxyprogesterone antibodies to different hormones in solid phase; parameters: species or system human; settings: for IgM binding (optical density): hormone in solid phase, 405 nm; for IgM % reaction: relative to 17-α-hydroxyprogesterone = 100
Experimental: as §1, §2

[3] = tested on: serum IgE anti-17-α-hydroxyprogesterone antibodies; assay: ELISA binding of IgE 17-α-hydroxyprogesterone antibodies to different hormones in solid phase; parameters: species or system human; settings: for IgE binding (optical density): hormone in solid phase, 405 nm; for IgE % reaction: relative to 17-α-hydroxyprogesterone = 100
Experimental: as §1, §2

[4] = tested on: serum IgG anti-estrogen antibodies; assay: ELISA binding of IgG estrogen antibodies to different hormones in solid phase; parameters: species or system human; settings: for IgG binding (optical density): hormone in solid phase, 405 nm; for IgG % reaction: relative to estrogen = 100
Experimental: as §1, §2

[5] = tested on: serum IgM anti-estrogen antibodies; assay: ELISA binding of IgM estrogen antibodies to different hormones in solid phase; parameters: species or system human; settings: for IgM binding (optical density): hormone in solid phase, 405 nm; for IgM % reaction: relative to estrogen = 100
Experimental: as §1, §2

[6] = tested on: serum IgE anti-estrogen antibodies; assay: ELISA binding of IgE estrogen antibodies to different hormones in solid phase; parameters: species or system human; settings: for IgE binding (optical density): hormone in solid phase, 405 nm; for IgE % reaction: relative to estrogen = 100
Experimental: as §1, §2

[7] = 0.5 mg intradermal, acute asthma
[8] = of 142 women with acute asthma, 0.5 mg intradermal, 15 to 30 seconds after injection

Compound: CC(=O)[C@H]1CC[C@H]2[C@@H]3CCC4=CC(=O)CC[C@]4(C)[C@H]3CC[C@]12C [Progesterone, progesterone]
- average symptomatic relief, patients who reported some response (women with acute asthma; 0 to 10 scale): 5 points
- average symptomatic relief, all patients (women with acute asthma; 0 to 10 scale, responding and not responding patients): 3.4 points
- average reduction in symptoms relative to maximum individual patient score (women with acute asthma; [7]): 62%
- patients reporting 100% relief of asthma symptoms (%) (women with acute asthma; [7]): 28%
- patients reporting 100% relief of asthma symptoms (number) (women with acute asthma; [7]): 40
- patients who positively responded to the treatment (%) (women with acute asthma; [8]): 91%
- patients who positively responded to the treatment (number) (women with acute asthma; [8]): 129
- IgG anti-17-α-hydroxyprogesterone binding ([1]; in comparison to 100% binding to 17-α-hydroxyprogesterone, over three sera): 69-77%
- IgG binding (optical density) ([1]; sample 1): 1.1
- IgG % reaction ([1]; sample 1): −69%
- IgG binding (optical density) ([1]; sample 2): 0.73
- IgG % reaction ([1]; sample 2): −77%
- IgG binding (optical density) ([1]; sample 3): 0.49
- IgG % reaction ([1]; sample 3): −72%
- IgM binding (optical density) ([2]; sample 1): 0.8
- IgM % reaction ([2]; sample 1): −61%
- IgM binding (optical density) ([2]; sample 2): 0.79
- IgM % reaction ([2]; sample 2): −77%
- IgM binding (optical density) ([2]; sample 3): 0.72
- IgM % reaction ([2]; sample 3): −78%
- IgE binding (optical density) ([3]; sample 1): 0.94
- IgE % reaction ([3]; sample 1): −65%
- IgE binding (optical density) ([3]; sample 2): 1.7
- IgE % reaction ([3]; sample 2): −71%
- IgE binding (optical density) ([3]; sample 3): 0.82
- IgE % reaction ([3]; sample 3): −77%
- IgG binding (optical density) ([4]; sample 1): 0.35
- IgG % reaction ([4]; sample 1): −29%
- IgG binding (optical density) ([4]; sample 2): 0.48
- IgG % reaction ([4]; sample 2): −27%
- IgG binding (optical density) ([4]; sample 3): 0.32
- IgG % reaction ([4]; sample 3): −35%
- IgM binding (optical density) ([5]; sample 1): 0.26
- IgM % reaction ([5]; sample 1): −29%
- IgM binding (optical density) ([5]; sample 2): 0.65
- IgM % reaction ([5]; sample 2): −31%
- IgM binding (optical density) ([5]; sample 3): 0.44
- IgM % reaction ([5]; sample 3): −34%
- IgE binding (optical density) ([6]; sample 1): 0.21
- IgE % reaction ([6]; sample 1): −26%
- IgE binding (optical density) ([6]; sample 2): 0.53
- IgE % reaction ([6]; sample 2): −35%
- IgE binding (optical density) ([6]; sample 3): 0.62
- IgE % reaction ([6]; sample 3): −39%
